Results reported in ChEMBL document CHEMBL3885861, “Open TG-GATES”.

Organism: Rattus norvegicus
Assay: Open TG-GATES - Regimen: Single
Type: toxicity, organism-based, Sprague-Dawley
Parameters: regimen Single, gender Male, age 6 weeks
Details: in vivo, iv, route intravenous injection; for KIDNEY_L / KIDNEY_R / KIDNEY_TOTAL: tissue Kidney; for LIVER: tissue Liver
[1] = 1 mg/kg, 3 h, tissue Blood, dose level Low
[2] = 1 mg/kg, 3 h, tissue Plasma, dose level Low
[3] = 1 mg/kg, 6 h, tissue Blood, dose level Low
[4] = 1 mg/kg, 6 h, tissue Plasma, dose level Low
[5] = 1 mg/kg, 9 h, tissue Blood, dose level Low
[6] = 1 mg/kg, 9 h, tissue Plasma, dose level Low
[7] = 1 mg/kg, 24 h, tissue Blood, dose level Low
[8] = 1 mg/kg, 24 h, tissue Plasma, dose level Low

COc1cccc2c1C(=O)c1c(O)c3c(c(O)c1C2=O)C[C@@](O)(C(=O)CO)C[C@@H]3O[C@H]1C[C@H](N)[C@H](O)[C@H](C)O1 [DOXORUBICIN]
TERMINAL_BW (1 mg/kg, 3 h, dose level Low): 214.5 g
Bas [1]: 0%
Eos [1]: 1%
Fbg [1]: 272 mg/dL
Hb [1]: 13.4 g/dL
Ht [1]: 38.5%
Lym [1]: 77%
MCH [1]: 21.8 pg
MCHC [1]: 34.8%
MCV [1]: 62.7 fL
Mono [1]: 3%
PT [1]: 16.4 s
Plat [1]: 126.6 x10_4/uL
RBC [1]: 614.2 x10_4/ul
Ret [1]: 6.6%
KIDNEY_L (1 mg/kg, 3 h, dose level Low): 0.9 g
KIDNEY_R (1 mg/kg, 3 h, dose level Low): 0.9 g
KIDNEY_TOTAL (1 mg/kg, 3 h, dose level Low): 1.9 g
LIVER (1 mg/kg, 3 h, dose level Low): 9.4 g
ALP [2]: 1599.2 IU/L
ALT [2]: 44 IU/L
AST [2]: 86.6 IU/L
CRE [2]: 0.2 mg/dL
DBIL [2]: 0.002 mg/dL
GLC [2]: 185.4 mg/dL
K [2]: 4.2 meq/L
Na [2]: 142.4 meq/L
RALB [2]: 2.9 g/dL
TBIL [2]: 0.018 mg/dL
TC [2]: 67.8 mg/dL
TG [2]: 81 mg/dL
TP [2]: 5.1 g/dL
gamma-GTP [2]: 1.6 IU/L
TERMINAL_BW (1 mg/kg, 6 h, dose level Low): 211.5 g
Bas [3]: 0%
Eos [3]: 0.4%
Fbg [3]: 292.8 mg/dL
Hb [3]: 13 g/dL
Ht [3]: 38.2%
Lym [3]: 79.4%
MCH [3]: 21.9 pg
MCHC [3]: 34.2%
MCV [3]: 64 fL
Mono [3]: 3.4%
PT [3]: 15.9 s
Plat [3]: 117.6 x10_4/uL
RBC [3]: 598.8 x10_4/ul
Ret [3]: 7%
KIDNEY_L (1 mg/kg, 6 h, dose level Low): 1 g
KIDNEY_R (1 mg/kg, 6 h, dose level Low): 1 g
KIDNEY_TOTAL (1 mg/kg, 6 h, dose level Low): 1.9 g
LIVER (1 mg/kg, 6 h, dose level Low): 8.9 g
ALP [4]: 1586.4 IU/L
ALT [4]: 43.4 IU/L
AST [4]: 78.8 IU/L
CRE [4]: 0.1 mg/dL
DBIL [4]: 0 mg/dL
GLC [4]: 172 mg/dL
K [4]: 4.2 meq/L
Na [4]: 140.6 meq/L
RALB [4]: 2.9 g/dL
TBIL [4]: 0.022 mg/dL
TC [4]: 71.8 mg/dL
TG [4]: 62.6 mg/dL
TP [4]: 5.2 g/dL
gamma-GTP [4]: 1.6 IU/L
TERMINAL_BW (1 mg/kg, 9 h, dose level Low): 206.4 g
Bas [5]: 0%
Eos [5]: 1%
Fbg [5]: 286.2 mg/dL
Ht [5]: 38.8%
Lym [5]: 74.8%
MCH [5]: 21.3 pg
MCHC [5]: 34.3%
MCV [5]: 62.3 fL
Mono [5]: 3%
Neu [5]: 20.4%
PT [5]: 16.4 s
Plat [5]: 115.3 x10_4/uL
RBC [5]: 624 x10_4/ul
Ret [5]: 6.7%
KIDNEY_L (1 mg/kg, 9 h, dose level Low): 0.9 g
KIDNEY_R (1 mg/kg, 9 h, dose level Low): 0.9 g
KIDNEY_TOTAL (1 mg/kg, 9 h, dose level Low): 1.8 g
LIVER (1 mg/kg, 9 h, dose level Low): 8.1 g
ALP [6]: 1211 IU/L
AST [6]: 73.4 IU/L
CRE [6]: 0.1 mg/dL
DBIL [6]: 0 mg/dL
GLC [6]: 180 mg/dL
K [6]: 4.2 meq/L
LDH [6]: 136.6 IU/L
Na [6]: 140.2 meq/L
RALB [6]: 3 g/dL
TBIL [6]: 0.02 mg/dL
TC [6]: 67.8 mg/dL
TG [6]: 52.6 mg/dL
TP [6]: 5.3 g/dL
gamma-GTP [6]: 1.2 IU/L
TERMINAL_BW (1 mg/kg, 24 h, dose level Low): 218.4 g
Bas [7]: 0%
Eos [7]: 0.8%
Fbg [7]: 307.6 mg/dL
Ht [7]: 37.2%
Lym [7]: 83.2%
MCH [7]: 21.6 pg
MCHC [7]: 35.8%
MCV [7]: 60.4 fL
Mono [7]: 3.4%
PT [7]: 16.7 s
Plat [7]: 116 x10_4/uL
RBC [7]: 617.4 x10_4/ul
Ret [7]: 6.2%
KIDNEY_L (1 mg/kg, 24 h, dose level Low): 0.9 g
KIDNEY_R (1 mg/kg, 24 h, dose level Low): 1 g
KIDNEY_TOTAL (1 mg/kg, 24 h, dose level Low): 1.9 g
ALP [8]: 1436.4 IU/L
AST [8]: 68.2 IU/L
CRE [8]: 0.2 mg/dL
DBIL [8]: 0.002 mg/dL
GLC [8]: 191.8 mg/dL
K [8]: 4.3 meq/L
Na [8]: 142.4 meq/L
RALB [8]: 3 g/dL
TBIL [8]: 0.024 mg/dL
TC [8]: 75.2 mg/dL
TG [8]: 102.4 mg/dL
TP [8]: 5.6 g/dL
gamma-GTP [8]: 1.4 IU/L
TERMINAL_BW (3 mg/kg, 3 h, dose level Middle): 212.4 g
Bas (3 mg/kg, 3 h, tissue Blood, dose level Middle): 0%
